Laboratory results as given in the NIST ThermoML archive (doi:10.1016/j.tca.2013.05.015).
± gives the expanded uncertainty stated by the source.

Test: mn = molality of the nth substance listed, in mol/kg
Conditions: 101 kPa, Liquid; for speed of sound: Sing-around technique in a fixed-path interferometer; for mass density: Vibrating tube method

CCCCCCCC[N+](C)(CCCCCCCC)CCCCCCCC.O=S(=O)([N-]S(=O)(=O)C(F)(F)F)C(F)(F)F + CCO
Conditions | mass density, 298.15 K [kg/m3] | mass density, 303.15 K [kg/m3] | mass density, 308.15 K [kg/m3] | mass density, 313.15 K [kg/m3] | speed of sound, 298.15 K [m/s] | speed of sound, 303.15 K [m/s] | speed of sound, 308.15 K [m/s] | speed of sound, 313.15 K [m/s]
m1 = 0.022 | 787.5 ± 2 | 783.3 ± 2 | 778.6 ± 2 | 774 ± 2 | 1150 ± 10 | 1129 ± 10 | 1099 ± 10 | 1087 ± 10
m1 = 0.0465 | 790.5 ± 2 | 786.3 ± 2 | 781.5 ± 2 | 777 ± 2 | 1151 ± 10 | 1130 ± 10 | 1100 ± 10 | 1088 ± 10
m1 = 0.0692 | 793.7 ± 2 | 789.3 ± 2 | 784.3 ± 2 | 779.5 ± 2 | 1152 ± 10 | 1131 ± 10 | 1101 ± 10 | 1089 ± 10
m1 = 0.1378 | 805.5 ± 2 | 801.2 ± 2 | 797 ± 2 | 792.6 ± 2 | 1154 ± 10 | 1134 ± 10 | 1116 ± 10 | 1104 ± 10
m1 = 0.2691 | 825.5 ± 2 | 821.5 ± 2 | 816.6 ± 2 | 812 ± 2 | 1158 ± 10 | 1140 ± 10 | 1122 ± 10 | 1110 ± 10
m1 = 0.4006 | 844.7 ± 2 | 840.6 ± 2 | 836.4 ± 2 | 832.3 ± 2 | 1170 ± 10 | 1149 ± 10 | 1134 ± 10 | 1116 ± 10
m1 = 0.6112 | 868.3 ± 2 | 864.6 ± 2 | 860.4 ± 2 | 856.3 ± 2 | 1176 ± 10 | 1158 ± 10 | 1140 ± 10 | 1125 ± 10
m1 = 0.8299 | 883.8 ± 2 | 879.9 ± 2 | 875.8 ± 2 | 866.2 ± 2 | 1179 ± 10 | 1161 ± 10 | 1146 ± 10 | 1131 ± 10
m1 = 1.008 | 892.6 ± 2 | 888.9 ± 2 | 884.8 ± 2 | 880.7 ± 2 | 1182 ± 10 | 1164 ± 10 | 1149 ± 10 | 1134 ± 10
m1 = 1.28 | 910.2 ± 2 | 906.5 ± 2 | 902.4 ± 2 | 898.3 ± 2 | 1188 ± 10 | 1170 ± 10 | 1158 ± 10 | 1146 ± 10

CCCCCCCC[N+](C)(CCCCCCCC)CCCCCCCC.O=S(=O)([N-]S(=O)(=O)C(F)(F)F)C(F)(F)F + CCOC(C)=O
Conditions | mass density, 298.15 K [kg/m3] | mass density, 303.15 K [kg/m3] | mass density, 308.15 K [kg/m3] | mass density, 313.15 K [kg/m3] | speed of sound, 298.15 K [m/s] | speed of sound, 303.15 K [m/s] | speed of sound, 308.15 K [m/s] | speed of sound, 313.15 K [m/s]
m1 = 0.0193 | 897 ± 2 | 891.1 ± 2 | 885.3 ± 2 | 878.9 ± 2 | 1142 ± 10 | 1119 ± 10 | 1097 ± 10 | 1074 ± 10
m1 = 0.0434 | 900 ± 2 | 894.1 ± 2 | 888.3 ± 2 | 882 ± 2 | 1143 ± 10 | 1120 ± 10 | 1098 ± 10 | 1076 ± 10
m1 = 0.0692 | 903 ± 2 | 897.1 ± 2 | 891.3 ± 2 | 885 ± 2 | 1144 ± 10 | 1122 ± 10 | 1104 ± 10 | 1077 ± 10
m1 = 0.1377 | 910.7 ± 2 | 904.8 ± 2 | 899.1 ± 2 | 892.9 ± 2 | 1149 ± 10 | 1125 ± 10 | 1107 ± 10 | 1080 ± 10
m1 = 0.2691 | 923.8 ± 2 | 918 ± 2 | 912.4 ± 2 | 906.5 ± 2 | 1152 ± 10 | 1128 ± 10 | 1110 ± 10 | 1083 ± 10
m1 = 0.4006 | 935.1 ± 2 | 929.4 ± 2 | 924 ± 2 | 918.3 ± 2 | 1155 ± 10 | 1131 ± 10 | 1113 ± 10 | 1086 ± 10
m1 = 0.6119 | 950.4 ± 2 | 944.9 ± 2 | 939.7 ± 2 | 934.5 ± 2 | 1161 ± 10 | 1140 ± 10 | 1116 ± 10 | 1092 ± 10
m1 = 0.8299 | 963.4 ± 2 | 958.3 ± 2 | 953.3 ± 2 | 948.4 ± 2 | 1164 ± 10 | 1146 ± 10 | 1122 ± 10 | 1098 ± 10
m1 = 1.006 | 972.5 ± 2 | 967.5 ± 2 | 962.6 ± 2 | 957.9 ± 2 | 1170 ± 10 | 1158 ± 10 | 1128 ± 10 | 1107 ± 10
m1 = 1.28 | 984.5 ± 2 | 979.7 ± 2 | 974.8 ± 2 | 970.2 ± 2 | 1179 ± 10 | 1161 ± 10 | 1137 ± 10 | 1113 ± 10
m1 = 2.132 | 1011.1 ± 2 | 1006.9 ± 2 | 1001.9 ± 2 | 997 ± 2 | 1200 ± 10 | 1170 ± 10 | 1152 ± 10 | 1131 ± 10
m1 = 2.999 | 1029.3 ± 2 | 1025.5 ± 2 | 1019.5 ± 2 | 1013.8 ± 2 | 1206 ± 10 | 1182 ± 10 | 1161 ± 10 | 1140 ± 10
